Holding throughout (test): NCI-60 cell line screen, 48 h
In assay [1] the test system is 786-0.
Assay [2] relates to A549.
Assay [3] deals with CAKI-1.
Assay [4] concerns DLD-1.
Assay [5] concerns HCT-116.
Assay [6] concerns HOP-62.
Assay [7] deals with M14.
Assay [8] relates to MOLT-4.
The test system of assay [9] is NCI-H23.
The test system of assay [10] is SF-539.
The test system of assay [11] is SK-MEL-2.
For assay [12], the system named is SK-MEL-5.
The test system of assay [13] is SNB-19.
Assay [14] has as its system SNB-75.
The test system of assay [15] is SR.
Assay [16] concerns U-251.
For assay [17], the system named is OVCAR-5.
For assay [18], the system named is DU-145.
Assay [19] concerns MDA-MB-231.
In assay [20] the test system is MDA-N.

These results are taken from ChEMBL document CHEMBL1201862, “PubChem BioAssay data set” (2004).

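Dose response: 5 concentrations. Exposure: 48 h. Format: 96-well plates. Endpoint: linear interpolation; highest concentration if not reached. GI50 marks 50% less growth.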 The source made the active and inactive calls. No stated cut-off is given here; in the data, active = GI50 up to about 1.1 µM and inactive = higher.

With `COc1ccc2c(c1)CCc1c-2nc2cc3c(cc2c1O)OCO3`, the GI50 in assay [1], in assay [2], in assay [3], in [4], in [5] and in [6] was > 100 µM (inactive) throughout. Also, the GI50 in assay [7], in assay [8], in assay [9], in assay [10], in [11] and in assay [12] was > 100 µM (inactive) each time. Moreover, the GI50 in assay [13], in assay [14], in assay [15] and in [16] was > 100 µM (inactive) throughout.
As for `O=c1c(-c2ccccc2)c(O)nc2[nH]c3ccccc3n12`, the GI50 in assay [1], in [2], in assay [3], in assay [4], in [5] and in assay [6] was > 100 µM (inactive) throughout. Besides, the GI50 in assay [7], in assay [8], in assay [9], in [17], in assay [10] and in assay [11] was > 100 µM (inactive) throughout. The GI50 in [12] was > 100 µM (inactive); in [13], > 100 µM (inactive); in [14], > 100 µM (inactive); in assay [15] it was 68.1 µM (inactive); in assay [16] it was > 100 µM (inactive).
As to `Cc1cccc2c1N(C(=O)/C=C\C(=O)O)C(c1c(C)[nH]c3ccccc13)C2` (stereo unspecified), the GI50 was 40.8 µM (inactive) in [1]; > 100 µM (inactive) in assay [2]; 30.3 µM (inactive) in [3]; 33.6 µM (inactive) in [4]; 23.2 µM (inactive) in assay [5]; > 100 µM (inactive) in assay [6]. Moreover, the GI50 in assay [7] was 55.1 µM (inactive); in assay [8], 31.2 µM (inactive); in [9] it was 43.8 µM (inactive); in assay [17], > 100 µM (inactive); in [11], 19.9 µM (inactive); in assay [12], 18.2 µM (inactive). Besides, the GI50 in assay [13] was 36.2 µM (inactive); in assay [14] it was > 10 µM (inactive); in assay [15], 31 µM (inactive); in assay [16] it was > 10 µM (inactive).
On to `COC(=O)CSc1nnc(-c2ccc(O)c([N+](=O)[O-])c2)[nH]1`, for which the GI50 in assay [1], in [2], in assay [3], in assay [4], in assay [5] and in assay [7] was > 100 µM (inactive) throughout. Further, the GI50 in assay [8], in assay [9], in [17], in [10], in assay [11] and in assay [12] was > 100 µM (inactive) each time. The GI50 in assay [13], in assay [14], in assay [15] and in assay [16] was > 100 µM (inactive) in each case.
As for `O=C(NC12CC3CC(CC(C3)C1)C2)C(=O)c1c[nH]c2ccc(Br)cc12`, the GI50 in assay [1] was 7.13 µM (inactive); in [2], 14.4 µM (inactive); in assay [3], 39.3 µM (inactive); in assay [4], 13.4 µM (inactive); in [5] it was 14.6 µM (inactive); in [6], 7.06 µM (inactive). Besides, the GI50 in assay [7] is 7.05 µM (inactive); in assay [8], 5.41 µM (inactive); in [9], 33.1 µM (inactive); in assay [17], 36.9 µM (inactive); in assay [10], 19 µM (inactive); in assay [11], 56.9 µM (inactive). The GI50 in assay [12] is 41 µM (inactive); in [13], 33.5 µM (inactive); in [14], 12.6 µM (inactive); in assay [15], 10 µM (inactive); in assay [16] it was 12.1 µM (inactive).
For `NC(=O)NC1C(C(=O)O)N(Cc2ccccc2)C(=O)N1Cc1ccccc1` (stereo unspecified), the GI50 in [1], in assay [2], in assay [3], in [4], in assay [5] and in assay [6] was > 100 µM (inactive) throughout. Further, the GI50 in assay [7] is > 100 µM (inactive); in [8], 3.72 µM (inactive); in assay [9], > 100 µM (inactive); in [17], > 100 µM (inactive); in assay [10], > 100 µM (inactive); in assay [11], > 100 µM (inactive). The GI50 in [12], in [13], in [14], in [15] and in [16] was > 100 µM (inactive) each time.
Regarding `CC[C@@]1(OC(=O)CN(C)C)C(=O)OCc2c1cc1n(c2=O)Cc2cc3ccccc3nc2-1`, the GI50 is 0.0259 µM (active) in assay [1]; 0.0365 µM (active) in [2]; 0.0211 µM (active) in assay [3]; 0.323 µM (active) in assay [4]; 0.013 µM (active) in [18]; 0.0481 µM (active) in assay [5]. Besides, the GI50 in assay [6] was 0.0234 µM (active); in assay [7], 0.0525 µM (active); in [19], 3.27 µM (inactive); in assay [20], 0.173 µM (active); in assay [8], 0.00295 µM (active); in assay [9], 0.0865 µM (active). Also, the GI50 in [17] is 0.247 µM (active); in assay [10], 0.0111 µM (active); in [11], 0.701 µM (active); in [12] it was 0.0328 µM (active); in assay [13], 0.0208 µM (active); in assay [14], 0.0647 µM (active). Further, the GI50 in [16] was 0.0118 µM (active).
Turning to `COC(=O)C12C3C4C5C3(C#N)C1C5(C(=O)OC)C42C(=O)N(C(C)C)C(C)C` (stereo unspecified), the GI50 in assay [1] was > 100 µM (inactive); in assay [2], > 100 µM (inactive); in assay [3] it was > 100 µM (inactive); in assay [4] it was > 50.2 µM (inactive); in [5], 39.9 µM (inactive); in assay [6] it was > 100 µM (inactive). Besides, the GI50 in assay [7] is > 100 µM (inactive); in assay [8], 66.2 µM (inactive); in assay [9] it was > 100 µM (inactive); in assay [17] it was > 100 µM (inactive); in assay [10], > 100 µM (inactive); in assay [11], > 100 µM (inactive). Besides, the GI50 is > 100 µM (inactive) in assay [12]; > 100 µM (inactive) in [13]; > 100 µM (inactive) in [14]; 13.9 µM (inactive) in assay [15]; > 78 µM (inactive) in assay [16].
Regarding `CSc1nc(NC2OC(COC(C)=O)C(OC(C)=O)C(OC(C)=O)C2OC(C)=O)c(-c2csc(N)n2)c(=O)n1C` (stereo unspecified), the GI50 in assay [1] was 18.5 µM (inactive); in assay [2] it was 43.4 µM (inactive); in assay [3], 31.3 µM (inactive); in [4] it was 44.8 µM (inactive); in assay [5], 31 µM (inactive); in assay [6], 24.2 µM (inactive). Moreover, the GI50 in [7] was 39.1 µM (inactive); in [8], > 100 µM (inactive); in assay [9], 39.3 µM (inactive); in assay [17], > 100 µM (inactive); in assay [10], 25.2 µM (inactive); in assay [11], 28.6 µM (inactive). Further, the GI50 in assay [12] is 57.5 µM (inactive); in assay [13], 56.6 µM (inactive); in assay [14] it was 18 µM (inactive); in assay [15], > 100 µM (inactive); in assay [16], 34.3 µM (inactive).
With `ONc1ncnc2[nH]cnc12`, the GI50 in [1], in assay [2], in assay [3], in assay [4], in assay [5] and in assay [6] was > 100 µM (inactive) throughout. Moreover, the GI50 in assay [7], in [8], in [9], in [17], in [10] and in assay [11] was > 100 µM (inactive) throughout. The GI50 in [12], in [13], in [14], in assay [15] and in assay [16] was > 100 µM (inactive) in each case.
For the compound `CCN(CC)CCNc1ccc2nnn3c4ccccc4c(=O)c1c23`, the GI50 in [1] is 4.3 µM (inactive); in assay [2] it was 3.59 µM (inactive); in assay [3], 3.15 µM (inactive); in assay [4] it was 4.19 µM (inactive); in assay [5], 4.44 µM (inactive); in assay [6] it was 4.18 µM (inactive). The GI50 is 3.86 µM (inactive) in assay [7]; 1.66 µM (inactive) in assay [8]; 5.81 µM (inactive) in [9]; 3.67 µM (inactive) in [17]; 6.84 µM (inactive) in assay [10]; 6.85 µM (inactive) in [11]. The GI50 was 3.08 µM (inactive) in [12]; 5.74 µM (inactive) in assay [13]; 3.6 µM (inactive) in assay [14]; 1.15 µM (inactive) in [15]; 3.27 µM (inactive) in [16].
